According to US7547686B2, “Combretastatin A-3 prodrug” (Arizona Board of Regents, a body corporate of the State of …, priority 2001, dated 2009):

Columns and labels:
[1] = test system: Stenotrophomonas maltophilia, Micrococcus luteus, Staphylococcus aureus, Escherichia coli, Enterobacter cloacae, Enterococcus faecalis, Streptococcus …; settings: Pettit et al., 2000; cited from earlier work
Cryptococcus neoformans = test: Disk diffusion assay, Cryptococcus neoformans; type: cell-based
Source text: (§1) Antimicrobial susceptibility testing. Compounds were screened against the bacteria Stenotrophomonas maltophilia, Micrococcus luteus, Staphylococcus aureus, Escherichia coli, Enterobacter cloacae, Enterococcus faecalis, Streptococcus pneumoniae, Neisseria gonorrhoeae, and the fungi Candida albicans and Cryptococcus neoformans, according to established disk susceptibility testing protocols (National Committee for Clinical Laboratory Standards 1997. Performance standards for antimicrobial disk susceptibility tests-sixth edition: Approved Standard M2-A6, NCCLS, Wayne, Pa.)

[2] = test system: human cancer cell lines and murine P388 lymphocytic leukemia cell line; test: Cancer cell line inhibitory activity, panel as a whole (Table II); type: cell-based
[3] = test system: Stenotrophomonas maltophilia, Micrococcus luteus, Staphylococcus aureus, Escherichia coli, Enterobacter cloacae, Enterococcus faecalis, Streptococcus …; test: Antimicrobial disk susceptibility testing, bacteria and fungi panel; type: cell-based
Source text: as §1

[4] = type: physicochemical; settings: at 25° C.

| SMILES | Solubility [4] | further results |
| --- | --- | --- |
| COc1ccc(/C=C/c2cc(OC)c(OC)c(OC)c2)c(O)c1O [(E)-combretastatin A-1] |  | antibacterial and antifungal activities (literature) [1]: antibacterial and antifungal activities |
| COc1ccc(/C=C\c2cc(O)c(OC)c(OC)c2)cc1O [Compound 2a, Combretastatin A-3] |  | MIC (Cryptococcus neoformans): 50-100 μg/disk |
| COc1ccc(/C=C\c2cc(OC)c(OC)c(OP(=O)([O-])O)c2)cc1OP(=O)([O-])O.[Na+].[Na+] [Compound 10a, Sodium combretastatin A-3 3,3′-O-phosphate] | >218 mg/mL | cancer cell line inhibitory activity (in words) [2]: good cancer cell line inhibitory activity; activity in disk diffusion assays [3]: not active |
| COc1ccc(/C=C\c2cc(OC)c(OC)c(OP(=O)([O-])O)c2)cc1OP(=O)([O-])O.[Li+].[Li+] [Compound 10b] | >100 mg/mL |  |
| COc1ccc(/C=C\c2cc(OC)c(OC)c(OP(=O)([O-])O)c2)cc1OP(=O)([O-])O.[K+].[K+] [Compound 10c] | >228 mg/mL | cancer cell line inhibitory activity (in words) [2]: good cancer cell line inhibitory activity |
| COc1ccc(/C=C\c2cc(OC)c(OC)c(OP(=O)([O-])O)c2)cc1OP(=O)([O-])O.[Rb+].[Rb+] [Compound 10d] | >60 mg/mL |  |
| COc1ccc(/C=C\c2cc(OC)c(OC)c(OP(=O)([O-])[O-])c2)cc1OP(=O)([O-])[O-].[Mg+2].[Mg+2] [Compound 10h] | 10 mg/mL |  |
| C1COCCN1.C1COCCN1.COc1ccc(C=Cc2cc(OC)c(OC)c(OP(=O)(O)O)c2)cc1OP(=O)(O)O [Compound 10k] | >40 mg/mL |  |
| COc1ccc(/C=C\c2cc(OC)c(OC)c(OP(=O)(O)O)c2)cc1OP(=O)(O)O.NC(=O)c1cccnc1.NC(=O)c1cccnc1.NC(=O)c1cccnc1.NC(=O)c1cccnc1 [Compound 10l] | 27 mg/mL |  |
